# pIC50: −log10 of the molar value.
# Tests used:
# [1] = biological target: Recombinant human EIF2AK3 (PERK) catalytic domain (amino acids 536-1116) (Homo sapiens (Human), UniProt Q9NZJ5); assay: PERK In Vitro Activity Assay (isolated), TR-FRET kinase assay; settings: isolated PERK enzyme, 1.5 μM ATP, read-out: Biochemical IC50
# Summary of the method: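 Recombinant PERK catalytic domain was incubated with 100–200 nM GFP-eIF2a substrate in 50 mM HEPES pH 7.5, 10 mM MgCl2, 1.0 mM EGTA and 0.01% Brij-35 for 45 min at room temperature. After a 10 mM EDTA stop, 2 nM Tb-anti-phospho-eIF2a was added for 90 min, and IC50 was fitted from TR-FRET ratios by 4-parameter logistic regression.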
# [2] = system: eIF2α in HEK293-EGFP-eIF2α cells; assay: PERK Cellular Assay (HEK293-EGFP-eIF2α cells, tunicamycin-induced ER stress, TR-FRET); assay type: cell-based; settings: tunicamycin 2 hours
# Summary of the method: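 Cells pre-incubated with inhibitor 30 min at 37 °C, then ER stress induced with […] tunicamycin for 2 h. TR-FRET read on lysates; ratio normalized to DMSO control as percent inhibition over a 10-point, 3-fold dilution series; IC50 from 4-parameter logistic fit.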
# Recombinant human EIF2AK3 (PERK) catalytic domain (amino acids 536-1116), sequence (Q9NZJ5 536-1116): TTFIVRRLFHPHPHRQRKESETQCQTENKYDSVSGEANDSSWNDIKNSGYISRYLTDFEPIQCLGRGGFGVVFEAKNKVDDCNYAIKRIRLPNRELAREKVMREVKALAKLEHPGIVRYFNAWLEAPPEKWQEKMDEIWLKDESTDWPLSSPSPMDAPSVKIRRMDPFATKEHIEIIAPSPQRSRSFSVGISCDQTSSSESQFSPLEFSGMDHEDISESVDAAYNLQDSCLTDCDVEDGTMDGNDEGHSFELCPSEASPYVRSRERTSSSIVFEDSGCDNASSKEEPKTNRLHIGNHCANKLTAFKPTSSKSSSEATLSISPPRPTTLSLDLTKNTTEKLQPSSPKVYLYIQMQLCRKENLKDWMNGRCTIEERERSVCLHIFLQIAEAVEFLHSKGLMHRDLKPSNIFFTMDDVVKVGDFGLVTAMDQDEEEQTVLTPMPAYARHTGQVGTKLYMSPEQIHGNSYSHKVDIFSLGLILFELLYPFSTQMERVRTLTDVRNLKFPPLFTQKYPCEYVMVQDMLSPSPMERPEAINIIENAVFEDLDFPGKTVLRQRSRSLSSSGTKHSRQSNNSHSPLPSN
pIC50 [1],SMILES,pIC50 [2]
7.60 to 9.00,"[2H]C([2H])([2H])c1nc(-c2ccc(NC(=O)C(O)c3cccc(C(F)(F)F)c3)c(F)c2F)c2c(N)ncc(C(F)(F)F)n12 (stereo not shown) [Example 148, N-[4-[8-amino-3-(trideuteriomethyl)-5-(trifluoromethyl)imidazo[1,5-a]pyrazin-1-yl]-2,3-difluoro-phenyl]-2-hydroxy-2-[3-(trifluoromethyl)phenyl]acetamide]",7.60 to 9.00
7.60 to 9.00,"[2H]C([2H])([2H])c1nc(-c2ccc(NC(=O)C(O)c3cccc(C(F)(F)F)c3)c(F)c2F)c2c(N)nc(C)cn12 (stereo not shown) [Example 150, N-[4-[8-amino-6-methyl-3-(trideuteriomethyl)imidazo[1,5-a]pyrazin-1-yl]-2,3-difluoro-phenyl]-2-hydroxy-2-[3-(trifluoromethyl)phenyl]acetamide]",7.30 to 7.59
7.60 to 9.00,"[2H]C([2H])([2H])c1nc(-c2ccc(NC(=O)C(O)c3cccc(C(F)(F)F)c3)c(F)c2F)c2c(N)ncc(Cl)n12 (stereo not shown) [Example 152, N-[4-[8-amino-5-chloro-3-(trideuteriomethyl)imidazo[1,5-a]pyrazin-1-yl]-2,3-difluoro-phenyl]-2-hydroxy-2-[3-(trifluoromethyl)phenyl]acetamide]",7.60 to 9.00
7.30 to 7.59,"[2H]C([2H])([2H])c1nc(-c2ccc(NC(=O)C(O)c3cccc(C(F)(F)F)c3)c(F)c2F)c2c(N)ncc(Cl)n12 (stereo not shown) [Example 153, N-[4-[8-amino-5-chloro-3-(trideuteriomethyl)imidazo[1,5-a]pyrazin-1-yl]-2,3-difluoro-phenyl]-2-hydroxy-2-[3-(trifluoromethyl)phenyl]acetamide]",6.60 to 7.00
7.60 to 9.00,"[2H]C([2H])([2H])c1nc(-c2ccc(NC(=O)C(O)c3cc(F)cc(F)c3)c(F)c2F)c2c(N)ncc(C)n12 (stereo not shown) [Example 155, N-[4-[8-amino-5-methyl-3-(trideuteriomethyl)imidazo[1,5-a]pyrazin-1-yl]-2,3-difluoro-phenyl]-2-(3,5-difluorophenyl)-2-hydroxy-acetamide]",7.00 to 7.29
7.60 to 9.00,"[2H]C([2H])([2H])c1nc(-c2ccc(NC(=O)C(O)c3cc(F)cc(C(F)(F)F)c3)c(F)c2F)c2c(N)ncc(C)n12 (stereo not shown) [Example 160, N-[4-[8-amino-5-methyl-3-(trideuteriomethyl)imidazo[1,5-a]pyrazin-1-yl]-2,3-difluoro-phenyl]-2-[3-fluoro-5-(trifluoromethyl)phenyl]-2-hydroxy-acetamide]",7.60 to 9.00
6.30 to 6.60,"[2H]C([2H])([2H])c1nc(-c2ccc(NC(=O)C(O)c3cc(F)cc(C(F)(F)F)c3)c(F)c2F)c2c(N)ncc(C(F)(F)F)n12 (stereo not shown) [Example 163, N-[4-[8-amino-3-(trideuteriomethyl)-5-(trifluoromethyl)imidazo[1,5-a]pyrazin-1-yl]-2,3-difluoro-phenyl]-2-[3-fluoro-5-(trifluoromethyl)phenyl]-2-hydroxy-acetamide]",6.30 to 6.60
7.30 to 7.59,"[2H]C([2H])([2H])c1nc(-c2ccc(NC(=O)C(O)c3cc(F)cc(C(F)(F)F)c3)c(F)c2F)c2c(N)ncc(Cl)n12 (stereo not shown) [Example 165, N-[4-[8-amino-5-chloro-3-(trideuteriomethyl)imidazo[1,5-a]pyrazin-1-yl]-2,3-difluoro-phenyl]-2-[3-fluoro-5-(trifluoromethyl)phenyl]-2-hydroxy-acetamide]",6.60 to 7.00
7.60 to 9.00,"Cc1c(-c2nc(C)n3c(C)cnc(N)c23)ccc(NC(=O)C(O)c2cccc(F)c2)c1F (stereo not shown) [Example 168, N-(4-(8-amino-3,5-dimethyl-imidazo[1,5-a]pyrazin-1-yl)-2-fluoro-3-methyl-phenyl)-2-(3-fluorophenyl)-2-hydroxy-acetamide]",6.30 to 6.60
7.60 to 9.00,"Cc1c(-c2nc(C)n3c(C)cnc(N)c23)ccc(NC(=O)C(O)c2cccc(F)c2)c1F (stereo not shown) [Example 169, N-(4-(8-amino-3,5-dimethyl-imidazo[1,5-a]pyrazin-1-yl)-2-fluoro-3-methyl-phenyl)-2-(3-fluorophenyl)-2-hydroxy-acetamide]",7.60 to 9.00
7.60 to 9.00,"[2H]C([2H])([2H])c1nc(-c2ccc(NC(=O)C(O)c3cccc(F)c3)nc2C)c2c(N)nc(C)cn12 (stereo not shown) [Example 170, N-[5-[8-amino-6-methyl-3-(trideuteriomethyl)imidazo[1,5-a]pyrazin-1-yl]-6-methyl-2-pyridyl]-2-(3-fluorophenyl)-2-hydroxy-acetamide]",6.60 to 7.00

# More lines, now with the values behind:
SMILES,pIC50 [1],pIC50 [2]
"[2H]C([2H])([2H])c1nc(-c2ccc(NC(=O)C(O)c3cccc(C(F)(F)F)c3)c(F)c2F)c2c(N)ncc(C(F)(F)F)n12 (stereo not shown) [Example 149, N-[4-[8-amino-3-(trideuteriomethyl)-5-(trifluoromethyl)imidazo[1,5-a]pyrazin-1-yl]-2,3-difluoro-phenyl]-2-hydroxy-2-[3-(trifluoromethyl)phenyl]acetamide]",6.00 to 6.30,6.30 to 6.60
"[2H]C([2H])([2H])c1nc(-c2ccc(NC(=O)C(O)c3cccc(C(F)(F)F)c3)c(F)c2F)c2c(N)nc(C)cn12 (stereo not shown) [Example 151, N-[4-[8-amino-6-methyl-3-(trideuteriomethyl)imidazo[1,5-a]pyrazin-1-yl]-2,3-difluoro-phenyl]-2-hydroxy-2-[3-(trifluoromethyl)phenyl]acetamide]",7.00 to 7.29,6.30 to 6.60
"[2H]C([2H])([2H])c1nc(-c2ccc(NC(=O)C(O)c3cc(F)cc(F)c3)c(F)c2F)c2c(N)ncc(C)n12 (stereo not shown) [Example 154, N-[4-[8-amino-5-methyl-3-(trideuteriomethyl)imidazo[1,5-a]pyrazin-1-yl]-2,3-difluoro-phenyl]-2-(3,5-difluorophenyl)-2-hydroxy-acetamide]",7.60 to 9.00,7.60 to 9.00
"[2H]C([2H])([2H])c1nc(-c2ccc(NC(=O)C(O)c3cc(F)cc(F)c3)c(F)c2F)c2c(N)ncc(Cl)n12 (stereo not shown) [Example 156, N-[4-[8-amino-5-chloro-3-(trideuteriomethyl)imidazo[1,5-a]pyrazin-1-yl]-2,3-difluoro-phenyl]-2-(3,5-difluorophenyl)-2-hydroxy-acetamide]",7.60 to 9.00,7.60 to 9.00
"[2H]C([2H])([2H])c1nc(-c2ccc(NC(=O)C(O)c3cc(F)cc(F)c3)c(F)c2F)c2c(N)ncc(Cl)n12 (stereo not shown) [Example 157, N-[4-[8-amino-5-chloro-3-(trideuteriomethyl)imidazo[1,5-a]pyrazin-1-yl]-2,3-difluoro-phenyl]-2-(3,5-difluorophenyl)-2-hydroxy-acetamide]",7.60 to 9.00,7.00 to 7.29
"[2H]C([2H])([2H])c1nc(-c2ccc(NC(=O)C(O)c3cc(F)cc(F)c3)c(F)c2F)c2c(N)ncc(C(F)(F)F)n12 (stereo not shown) [Example 158, N-[4-[8-amino-3-(trideuteriomethyl)-5-(trifluoromethyl)imidazo[1,5-a]pyrazin-1-yl]-2,3-difluoro-phenyl]-2-(3,5-difluorophenyl)-2-hydroxy-acetamide]",7.60 to 9.00,7.60 to 9.00
"[2H]C([2H])([2H])c1nc(-c2ccc(NC(=O)C(O)c3cc(F)cc(F)c3)c(F)c2F)c2c(N)ncc(C(F)(F)F)n12 (stereo not shown) [Example 159, N-[4-[8-amino-3-(trideuteriomethyl)-5-(trifluoromethyl)imidazo[1,5-a]pyrazin-1-yl]-2,3-difluoro-phenyl]-2-(3,5-difluorophenyl)-2-hydroxy-acetamide]",7.00 to 7.29,6.30 to 6.60
"[2H]C([2H])([2H])c1nc(-c2ccc(NC(=O)C(O)c3cc(F)cc(C(F)(F)F)c3)c(F)c2F)c2c(N)ncc(C)n12 (stereo not shown) [Example 161, N-[4-[8-amino-5-methyl-3-(trideuteriomethyl)imidazo[1,5-a]pyrazin-1-yl]-2,3-difluoro-phenyl]-2-[3-fluoro-5-(trifluoromethyl)phenyl]-2-hydroxy-acetamide]",7.60 to 9.00,6.60 to 7.00
"[2H]C([2H])([2H])c1nc(-c2ccc(NC(=O)C(O)c3cc(F)cc(C(F)(F)F)c3)c(F)c2F)c2c(N)ncc(C(F)(F)F)n12 (stereo not shown) [Example 162, N-[4-[8-amino-3-(trideuteriomethyl)-5-(trifluoromethyl)imidazo[1,5-a]pyrazin-1-yl]-2,3-difluoro-phenyl]-2-[3-fluoro-5-(trifluoromethyl)phenyl]-2-hydroxy-acetamide]",7.60 to 9.00,7.60 to 9.00
"[2H]C([2H])([2H])c1nc(-c2ccc(NC(=O)C(O)c3cc(F)cc(C(F)(F)F)c3)c(F)c2F)c2c(N)ncc(Cl)n12 (stereo not shown) [Example 164, N-[4-[8-amino-5-chloro-3-(trideuteriomethyl)imidazo[1,5-a]pyrazin-1-yl]-2,3-difluoro-phenyl]-2-[3-fluoro-5-(trifluoromethyl)phenyl]-2-hydroxy-acetamide]",7.60 to 9.00,7.60 to 9.00
"[2H]C([2H])([2H])c1nc(-c2ccc(NC(=O)C(O)c3cc(F)cc(C(F)(F)F)c3)c(F)c2F)c2c(N)nc(C)cn12 (stereo not shown) [Example 166, N-[4-[8-amino-6-methyl-3-(trideuteriomethyl)imidazo[1,5-a]pyrazin-1-yl]-2,3-difluoro-phenyl]-2-[3-fluoro-5-(trifluoromethyl)phenyl]-2-hydroxy-acetamide]",7.60 to 9.00,7.60 to 9.00
"[2H]C([2H])([2H])c1nc(-c2ccc(NC(=O)C(O)c3cc(F)cc(C(F)(F)F)c3)c(F)c2F)c2c(N)nc(C)cn12 (stereo not shown) [Example 167, N-[4-[8-amino-6-methyl-3-(trideuteriomethyl)imidazo[1,5-a]pyrazin-1-yl]-2,3-difluoro-phenyl]-2-[3-fluoro-5-(trifluoromethyl)phenyl]-2-hydroxy-acetamide]",7.30 to 7.59,6.60 to 7.00

# Source: patent US12331054B2, “Perk inhibiting imidazolopyrazine compounds” (HiberCell, Inc., priority 2019, dated 2025)
